Measurements published in US7271161B2, “Platinum complexes as antitumor agents in combination with biochemical modulation” (Board of Regents, the University of Texas System, priority 2002, dated 2007).
Read-outs that look alike come from different tables or passages of the source.

Assays:
[1] = test system: SKOV-3 cell line; test: MTT cytotoxicity assay, cisplatin-resistant SKOV-3 cells, with or without BSO; type: cell-based, Human; details: SKOV-3; for IC50: Table 4; for DMF +BSO (MTC) / DMF Control: Table 5; for DMF Control: absence of BSO (reference)
Text: The ovarian A2780 and 2008 cell lines are sensitive to cisplatin, while the corresponding 2780CP and 2008/C13* cell lines were selected for resistance following in vitro exposure to cisplatin. The SKOV-3 cell line was established from a patient who was resistant to cisplatin therapy and is considered a model of cisplatin resistance. The A2780 and 2780CP cells have wild-type p53 function, while SKOV-3 is devoid of p53 function. The p53 status for the 2008 and 2008/C131 cells is presently not known.
Procedure for Cytotoxic Evaluation. All cell lines are maintained in RPMI 1640 medium supplemented with 10% fetal bovine serum, 50 μg/ml penicillin, 50 μg/ml streptomycin, 100 μg/ml neomycin and 0.3 mg/ml L-glutamine. The ovarian lines also require 2 μg/ml insulin for maximal growth. Cells are grown as monolayers at 37° C. in a humidified atmosphere of 5% CO2:95% air. Cytotoxicity is determined by a standard MTT assay. Briefly, the exponentially-growing cells are trypsinized to dislodge them before use. After diluting the tumor cells to appropriate concentrations (2,000-30,000 cells/ml), 100 μl aliquots of the cell suspensions are added to each well of a 96-well microtiter plate. The cells are allowed to attach overnight, and then exposed for 24 hr to BSO at a concentration that is equal to or less than maximally tolerated concentration (MTC). At 22 hr after addition of BSO, the platinum complex is added, and 2 hr later the cells are washed and reincubated. After another 5 days, when control cells are in an exponential phase of growth, 50 μl of an MTT solution (3 mg/ml) is added to each well. Following a 3-hr incubation, the medium is removed and replaced by 50 μl of 100% DMSO to dissolve MTT formazan crystals. Plates are agitated on a plate shaker for 5 min, and absorbances are measured at 570 nm in a multiwell scanning spectrophotometer.
IC50 values, defined as the drug concentration (μM) inhibiting cell growth by 50% compared to control wells, are determined by fitting a sigmoidal curve to the data using a computer program. Resistance factor is calculated as a ratio of the IC50 against resistant cell line to the IC50 against parent cell line. The dose modification factor (DMF) is derived from a ratio of IC50 without BSO to that with BSO.

[2] = target: T1, γ-Glutamylcysteine synthetase (Rattus norvegicus, UniProt P19468); details: cited from earlier work
T1 sequence (P19468 1-637): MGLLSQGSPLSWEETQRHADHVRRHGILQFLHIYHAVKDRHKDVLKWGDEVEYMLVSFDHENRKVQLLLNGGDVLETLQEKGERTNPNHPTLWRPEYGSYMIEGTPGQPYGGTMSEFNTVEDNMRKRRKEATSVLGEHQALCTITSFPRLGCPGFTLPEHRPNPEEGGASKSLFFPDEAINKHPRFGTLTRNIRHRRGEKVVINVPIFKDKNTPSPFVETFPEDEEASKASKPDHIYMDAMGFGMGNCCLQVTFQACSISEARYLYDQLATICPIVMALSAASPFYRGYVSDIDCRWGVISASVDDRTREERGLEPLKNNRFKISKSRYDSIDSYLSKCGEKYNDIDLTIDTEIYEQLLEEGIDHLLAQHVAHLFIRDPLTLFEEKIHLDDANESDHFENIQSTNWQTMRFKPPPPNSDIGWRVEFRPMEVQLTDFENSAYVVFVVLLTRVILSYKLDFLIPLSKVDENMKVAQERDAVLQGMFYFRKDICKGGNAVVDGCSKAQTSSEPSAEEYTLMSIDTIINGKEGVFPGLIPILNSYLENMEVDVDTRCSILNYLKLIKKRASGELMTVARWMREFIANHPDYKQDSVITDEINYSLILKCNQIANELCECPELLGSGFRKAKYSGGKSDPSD

[3] = test system: human melanoma cell line (RPMI 8322); details: cited from earlier work
[4] = BSO at sub-MTC, read-out: IC50 +BSO (MTC)
[5] = absence of BSO, read-out: IC50 Control

[NH2][Pt]([OH])([OH])([Cl])([Cl])[N]1CCCCCC1 [Complex 18]
IC50 [1, 4]: 14.2 µM
IC50 [1, 5]: 140 µM
DMF +BSO (MTC) ([1]; BSO at sub-MTC): 9.86
DMF Control [1]: 1.00

CC(=O)[O][Pt]([NH2])([Cl])([Cl])([O]C(C)=O)[N]1CCCCCC1 [Complex 19]
IC50 [1, 4]: 21.6 µM
IC50 [1, 5]: 100 µM
DMF +BSO (MTC) ([1]; BSO at sub-MTC): 4.63
DMF Control [1]: 1.00

CCCCS(=N)(=O)CCC(N)C(=O)O (centres unmarked) [S-butyl homocysteine sulfoximine]
inhibition effectiveness relative to methionine sulfoximine ([2]; vs. methionine sulfoximine): at least 100 times
inhibition effectiveness relative to prothionine sulfoximine ([2]; vs. prothionine sulfoximine): about 20 times

N[C@@H](Cc1ccc(N(CCCl)CCCl)cc1)C(=O)O [melphalan]
effect of BSO pretreatment on cytotoxicity [3]: enhanced cytotoxicity
